Test system: phenylquinone-induced writhing
Test: Analgesia test in the phenylquinone-induced writhing test in mice
Assay type: in vivo
Details: male NMRI mice; 10 mg/kg intravenous, 10 minutes before phenylquinone i.p.; writhing counted 5–20 minutes after phenylquinone
Procedure: The in-depth investigation for analgesic activity was carried out in the phenylquinone-induced writhing in mice (modified by I. C. Hendershot, J. Forsaith, J. Pharmacol. Exp. Ther. 125, 237–240 (1959)). Male NMRI mice weighing 25–30 g were used for this. Groups of 10 animals per substance dose received 0.3 ml/mouse of a 0.02% aqueous solution of phenylquinone (phenylbenzoquinone, Sigma, Deisenhofen; preparation of the solution with the addition of 5% ethanol and storage in a water bath at 45° C.) administered intraperitoneally 10 minutes after intravenous administration of the test substances. The animals were placed individually in observation cages. The number of pain-induced stretching movements (so-called writhing reactions=straightening of the body with stretching of the hind extremities) were counted by means of a push-button counter for 5–20 minutes after the administration of phenylquinone. Animals which received only physiological saline solution were also run as a control.
The substances were tested in the standard dose of 10 mg/kg. The inhibition of the writhing reactions by a substance was calculated according to the following equation: […]
The in-depth investigation for analgesic activity was carried out in the phenylquinone-induced writhing in mice as described above.

| Compound | Inhibition of the writhing reaction in % |
| --- | --- |
| Oc1ccc2ccccc2c1C(c1ccccc1)N1CCOCC1 (stereo not drawn) [Example 41, 1-(Morpholin-4-yl-phenylmethyl]-naphthalen-2-ol] | 30% |
| COc1ccc(COc2ccc3ccccc3c2C(c2ccccc2)N(C)C)cc1 (stereo not drawn) [Example 38, {[2-(4-Methoxybenzyloxy)-naphthalen-1-yl]-phenylmethyl}-dimethylamine] | 81% |
| CN(C)C(c1ccccc1)c1c(OC(=O)c2ccccc2Cl)ccc2ccccc12 (stereo not drawn) [Example 40, 2-Chlorobenzoic acid 1-(dimethylaminophenylmethyl)-naphthalen-2-yl ester] | 48% |
| Oc1ccc2ccccc2c1C(c1ccccc1)N1CCCCC1 (stereo not drawn) [Example 42, 1-(Phenylpiperidin-1-yl-methyl)-naphthalen-2-ol] | 92% |
| COc1ccc(COc2c(C(c3ccccc3)N(C)C)ccc3ccccc23)cc1 (stereo not drawn) [Example 37, {[1-(4-Methoxy-benzyloxy)-naphthalen-2-yl]-phenylmethyl}-dimethylamine] | 40% |
| COc1ccc(C(=O)Oc2ccc3ccccc3c2C(c2ccccc2)N(C)C)cc1 (stereo not drawn) [Example 39, 4-Methoxybenzoic acid 1-(dimethylaminophenylmethyl)-naphthalen-2-yl ester] | 21% |
